Patent US10775391B2, “Nervous system-specific transmembrane proteasome complex that modulates neuronal signaling through extracellular signaling via brain activity peptides” (THE JOHNS HOPKINS UNIVERSITY, priority 2015, dated 2020)
Where a SMILES comes first, the peptide text is derived from it. The star is where a group is joined. Cbz = O=C(OCc1ccccc1)*

Legend:
[1] = system: GCaMP3-transfected cultured cortical neurons; test: Calcium imaging of bicuculline-stimulated GCaMP3-transfected cortical neurons; format: cell-based, mouse; settings: for amplitude of bicuculline-induced calcium transients: 1 μM bicuculline, biotin-epoxomicin 25 μM co-administered
Procedure: Bicuculline treatment was administered as a 1 μM stimulation in calcium imaging buffer in a perfusion setup. […] Each treatment was monitored for three minutes prior to washout. […] Cells were ensured to be healthy at the end of the imaging process by stimulating with 55 mM KCl and washing out and assessing for a proper calcium signal. Quantification was done by picking multiple regions of interests in primary and secondary dendrites across multiple coverslips over different imaging days. Data was analyzed using the Time Series Analyzer V3.0 ImageJ plugin and the ROI manager. Data were pooled for all the ROIs to generate a single N value. Brains from P0-P3 mouse pups (Cre GCaMP3; Nestin-Cre ER) were dissected and plated in Neurobasal-A with B-27 supplement for two weeks. At DIV7, 4-hydroxytamoxifen (4-HT, concentration) was added to induce GCaMP expression. Neurons were imaged in a calcium-imaging buffer (130 mM NaCl, 3 mM KCl, 2.5 mM CaCl2, 0.6 mM MgCl2, 10 mM Hepes, 10 mM glucose, 1.2 mM NaHCO3 pH 7.45). Peptides were collected, filtered, and dialyzed and then lyophilized prior to resuspension in 1 mL of MilliQ water and addition onto GCaMP-encoding neurons. […] Peptides treated with Proteinase K were spun through a 10 kDa MW cutoff filter prior to addition onto neurons in order to remove Proteinase K. Random peptide mixtures contained HIV-TAT, a polybasic peptide mixture, or a crude peptide prep.

[2] = target: T1, Neuronal Membrane Proteasome (NMP) (Mus musculus, UniProt O55234+P70195+Q60692); test: Release of 35S-radiolabeled peptides (SNAPPs) from cortical neurons into media, liquid scintillation; format: cell-based; settings: baseline spontaneous activity
T1 construct: we believe that the endogenous NMP is catalytically active; endogenous in cells; host or cells: primary cultured cortical neurons from C57Bl/6 mouse embryos
Procedure: Cortical neurons were cultured for 12-18 days in vitro. Neurons were membrane depolarized with 55 mM extracellular KCl by addition of prewarmed depolarization buffer (55 mM KCl, 0.2 mM CaCl2, 1 mM MgCl2, 10 mM HEPES pH7.5) or a mock buffer (55 mM NaCl, final) in fresh neuronal growth media as previously described (Nature 455: 1198-1204 (2008)). Labeling was done in Neurobasal growth media with B27 supplement and without methionine or cysteine (Life Technologies, special order). ^35S methionine-cysteine (EasyTag PerkinElmer) was incorporated at 55 mCi in the cys/met free growth medium. Where indicated, MG132 (25 mM, Cell Signaling) and ATPγS (1 mM, Sigma) was added during the radioactive labeling window, 15 minutes prior to stimulation and was kept in for the duration of the stimulation.
For any chase experiment, free radioactivity was washed out with phosphate-buffered saline and replaced with fresh neuronal growth medium. […]
Quantification of SNAPPs was done by quantifying the amount of radioactivity in each sample by liquid scintillation (Wallac 1410). […]

NMP [3] = target: T2, NMP (Mus musculus, UniProt O55234+P70195+Q60692); test: Catalytic activity of purified NMP with fluorescent substrate SUC-LLVY-AMC; format: biochemical; settings: low concentration (0.05% final), purified NMP in vitro
T2 construct: we purified NMPs from neuronal plasma membranes using a 20S purification matrix; endogenous in cells; host or cells: cultured neurons; detergent-extracted plasma membranes, isolated with the 20S proteasome purification kit (Enzo Life Sciences), assayed on beads
Procedure: In some embodiments, proteasome purification was performed as follows. Cells were treated and then immediately put on ice before purifications were performed as previously described (Methods Mol Biol 832, 423-432, 2012). Briefly, proteasomes were purified out of neuronal cytosol and detergent-extracted neuronal plasma membranes using the 20S proteasome purification kit (Enzo Life Sciences) or the 26S proteasome purification kit (UBPBio). For western blots, samples were denatured at 65° C. for 5 minutes in SDS sample buffer, resolved by SDS PAGE, transferred to nitrocellulose, and immunoblotted. For catalytic activity assays, ⅙th of the bead volume following proteasome purification was resuspended in activity assay buffer (20 mM Tris-HCl, pH8.0, 5 mM ATP, 5 mM MgCl2, 1 mM DTT). 26S proteasomal activity was assessed by the addition of 10 μM of SUC-LLVY-AMC (Enzo Life Sciences). The contribution of 20S proteasomal activity was assessed by the comparison of 26S proteasome activity to that of total proteasome activity (26S+20S), measured by the activity of samples containing SDS at a final concentration of 0.05%.

NMP [4] = test: NMP expression by surface biotinylation, streptavidin pulldown and western blot in treated cortical neurons; format: cell-based; settings: DIV12 mouse neurons, 1 μM for 12 hours
Procedure: Surface biotin-labeling was performed as previously described (Nat Neurosci 12, 879-887 2009). Whole mouse brains, cultured cells or whole animal tissue were obtained where indicated and each sample was labeled using Sulfo-NHS-LC-Biotin (ThermoFisher). Cultured cells were washed in pH 8.0 PBS (Gibco) with 1 mM CaCl2 and 2 mM MgCl2 (PBSCM) and treated with 1 mg/mL Sulfo-NHS-LC-Biotin dissolved in PBSCM for 20 minutes at 4° C. before the reaction was quenched for 10 minutes in 50 mM glycine in PBSCM. Intact tissue was quickly and manually chopped, following biotinylation for only 10 minutes at 4° C. in 0.5 mg/mL Sulfo-NHS-LC-Biotin prior to quenching the reaction.
Primary, human central nervous system (CNS) tissue, gestational weeks 19-21, were obtained under surgical written consent following protocols approved by the Johns Hopkins Institutional Review Board, based on its designation as biological waste. Tissue was mechanically chopped at 4° C., and immediately processed for surface biotinylation. For streptavidin pulldown experiments lysed cells were incubated with high capacity streptavidin agarose beads overnight and then washed thrice with RIPA buffer before resuspension in SDS sample buffer.
For western blots, samples were boiled for 5 minutes in SDS sample buffer, resolved by SDS PAGE, transferred to nitrocellulose, and immunoblotted. […]

Compound: CC(C)C[C@@H](C=O)NC(=O)[C@H](CC(C)C)NC(=O)[C@H](CC(C)C)NC(=O)OCc1ccccc1 [MG-132] (Cbz-Leu-Leu-Leu-aldehyde)
- amplitude of bicuculline-induced calcium transients [1]: similar
- neuronal activity-induced calcium signaling ([1]; acute addition onto neurons, within seconds): suppressed
- peptide release under non-stimulating conditions [2]: inhibited

Compound: CCCCCCCCCCCCOS(=O)(=O)[O-].[Na+] [SDS, sodium-dodecyl-sulfate]
- catalytic activity of the NMP (NMP [3]): potently stimulated

Compound: Aβ1-42: Aβ1-42 peptide used to treat mouse cortical neurons as an Alzheimer's disease model
- expression of proteasome subunits in the streptavidin pulldown (NMP expression) (NMP [4]): significant decrease

Compound: biotin-epoxomicin
- amplitude of bicuculline-induced calcium transients [1]: strongly and rapidly attenuated
